These molecules were tested on RAW264.7 (assay: Inhibition of NFkappaB in LPS-challenged mouse RAW264.7 cells assessed as ratio of NFkappaB transcriptional activity to thymidine kinase transcriptional activity at 100 uM incubated for 30 mins prior to LPS-challenge measured after 6 hrs by dual luciferase reporter gene assay (reference value: 5.18+/-0.98)).
Format: cell-based
`COC1=C[C@@H]2[C@@H]3Cc4ccc(OC)c(OCc5cn(Cc6ccccc6[N+](=O)[O-])nn5)c4[C@]2(CCN3C)CC1=O` was tested, and the Ratio was 2.32. For `COC1=C[C@@H]2[C@@H]3Cc4ccc(OC)c(OCc5ccccc5C)c4[C@]2(CCN3C)CC1=O`, the Ratio was 4.91. `COC1=C[C@@H]2[C@@H]3Cc4ccc(OC)c(OCc5ccc([N+](=O)[O-])cc5)c4[C@]2(CCN3C)CC1=O` showed a Ratio of 4.37. With `COC1=C[C@@H]2[C@@H]3Cc4ccc(OC)c(OCc5ccccc5C#N)c4[C@]2(CCN3C)CC1=O` the Ratio was 5.09. In the case of `COC1=C[C@@H]2[C@@H]3Cc4ccc(OC)c(OCc5cn(Cc6ccc(Br)cc6)nn5)c4[C@]2(CCN3C)CC1=O`, the Ratio is reported as 4.19. `COC1=C[C@@H]2[C@@H]3Cc4ccc(OC)c(OCc5cn(Cc6cccc(C#N)c6)nn5)c4[C@]2(CCN3C)CC1=O` showed a Ratio of 2.86. Work on `COC1=C[C@@H]2[C@@H]3Cc4ccc(OC)c(OCc5cn(Cc6ccc(Cl)cc6Cl)nn5)c4[C@]2(CCN3C)CC1=O` yielded a Ratio of 2.74. Work on `COC1=C[C@@H]2[C@@H]3Cc4ccc(OC)c(OCc5cn(Cc6c(Cl)cccc6Cl)nn5)c4[C@]2(CCN3C)CC1=O` yielded a Ratio of 3.44. `COC1=C[C@@H]2[C@@H]3Cc4ccc(OC)c(OCc5cn(Cc6cccc(Cl)c6)nn5)c4[C@]2(CCN3C)CC1=O` was tested, and the Ratio was 2.88. For `COC1=C[C@@H]2[C@@H]3Cc4ccc(OC)c(OCc5cn(Cc6ccccc6C)nn5)c4[C@]2(CCN3C)CC1=O`, the Ratio was 3. In the case of `COC1=C[C@@H]2[C@@H]3Cc4ccc(OC)c(OCc5cn(Cc6ccccc6Br)nn5)c4[C@]2(CCN3C)CC1=O`, the Ratio is reported as 2.08. For `COC1=C[C@@H]2[C@@H]3Cc4ccc(OC)c(OCc5cn(Cc6ccc([N+](=O)[O-])cc6)nn5)c4[C@]2(CCN3C)CC1=O`, the Ratio was 3.63. `COC1=C[C@@H]2[C@@H]3Cc4ccc(OC)c(OCc5ccc(OC)cc5)c4[C@]2(CCN3C)CC1=O` was tested, and the Ratio was 4.85. `COC1=C[C@@H]2[C@@H]3Cc4ccc(OC)c(O)c4[C@]2(CCN3C)CC1=O` was tested, and the Ratio was 4.41. In the case of `COC1=C[C@@H]2[C@@H]3Cc4ccc(OC)c(OCc5cn(Cc6ccc(C)cc6)nn5)c4[C@]2(CCN3C)CC1=O`, the Ratio is reported as 3.37. `COC1=C[C@@H]2[C@@H]3Cc4ccc(OC)c(OCc5cn(Cc6ccc(Cl)cc6)nn5)c4[C@]2(CCN3C)CC1=O` showed a Ratio of 2.22. `COC1=C[C@@H]2[C@@H]3Cc4ccc(OC)c(OCc5cn(Cc6cccc([N+](=O)[O-])c6)nn5)c4[C@]2(CCN3C)CC1=O` was tested, and the Ratio was 3.17. `COC1=C[C@@H]2[C@@H]3Cc4ccc(OC)c(OCc5cn(Cc6cccc(F)c6)nn5)c4[C@]2(CCN3C)CC1=O` showed a Ratio of 3.04. `COC1=C[C@@H]2[C@@H]3Cc4ccc(OC)c(OCc5ccccc5[N+](=O)[O-])c4[C@]2(CCN3C)CC1=O` was tested, and the Ratio was 4.7. `COC1=C[C@@H]2[C@@H]3Cc4ccc(OC)c(OCc5cccc(Br)c5)c4[C@]2(CCN3C)CC1=O` gave a Ratio of 4.51. With `COC1=C[C@@H]2[C@@H]3Cc4ccc(OC)c(OCc5cn(Cc6ccc(OC)cc6)nn5)c4[C@]2(CCN3C)CC1=O` the Ratio was 3.12. Molecule `COC1=C[C@@H]2[C@@H]3Cc4ccc(OC)c(OCc5cn(Cc6ccccc6F)nn5)c4[C@]2(CCN3C)CC1=O` has a Ratio of 3.13. For `COC1=C[C@@H]2[C@@H]3Cc4ccc(OC)c(OCc5ccccc5F)c4[C@]2(CCN3C)CC1=O`, the Ratio was 4.71. Molecule `COC1=C[C@@H]2[C@@H]3Cc4ccc(OC)c(OCc5ccc(C)cc5)c4[C@]2(CCN3C)CC1=O` has a Ratio of 5.24. `COC1=C[C@@H]2[C@@H]3Cc4ccc(OC)c(OCc5ccc(Br)cc5)c4[C@]2(CCN3C)CC1=O` gave a Ratio of 4.82. Molecule `COC1=C[C@@H]2[C@@H]3Cc4ccc(OC)c(OCc5cccc([N+](=O)[O-])c5)c4[C@]2(CCN3C)CC1=O` has a Ratio of 4.18. Work on `COC1=C[C@@H]2[C@@H]3Cc4ccc(OC)c(OCc5cn(Cc6ccccc6)nn5)c4[C@]2(CCN3C)CC1=O` yielded a Ratio of 1.8. Molecule `COC1=C[C@@H]2[C@@H]3Cc4ccc(OC)c(OCc5cn(Cc6ccccc6Cl)nn5)c4[C@]2(CCN3C)CC1=O` has a Ratio of 2.39. For `COC1=C[C@@H]2[C@@H]3Cc4ccc(OC)c(OCc5cn(Cc6cccc(C)c6)nn5)c4[C@]2(CCN3C)CC1=O`, the Ratio was 2.98. `COC1=C[C@@H]2[C@@H]3Cc4ccc(OC)c(OCc5ccc(F)cc5)c4[C@]2(CCN3C)CC1=O` gave a Ratio of 4.22. `COC1=C[C@@H]2[C@@H]3Cc4ccc(OC)c(OCc5cn(Cc6ccc(C(C)(C)C)cc6)nn5)c4[C@]2(CCN3C)CC1=O` gave a Ratio of 3.26. For `COC1=C[C@@H]2[C@@H]3Cc4ccc(OC)c(OCc5cccc(C)c5)c4[C@]2(CCN3C)CC1=O`, the Ratio was 4.71. In the case of `COC1=C[C@@H]2[C@@H]3Cc4ccc(OC)c(OCc5cn(Cc6ccccc6C#N)nn5)c4[C@]2(CCN3C)CC1=O`, the Ratio is reported as 1.96. For `COC1=C[C@@H]2[C@@H]3Cc4ccc(OC)c(OCc5cn(Cc6cccc(Br)c6)nn5)c4[C@]2(CCN3C)CC1=O`, the Ratio was 2.46. For `COC1=C[C@@H]2[C@@H]3Cc4ccc(OC)c(OCc5cn(Cc6ccc(C#N)cc6)nn5)c4[C@]2(CCN3C)CC1=O`, the Ratio was 3.61. `COC1=C[C@@H]2[C@@H]3Cc4ccc(OC)c(OCc5cccc(F)c5)c4[C@]2(CCN3C)CC1=O` showed a Ratio of 4.53. Work on `COC1=C[C@@H]2[C@@H]3Cc4ccc(OC)c(OCc5ccccc5Br)c4[C@]2(CCN3C)CC1=O` yielded a Ratio of 5.03. Work on `COC1=C[C@@H]2[C@@H]3Cc4ccc(OC)c(OCc5cccc(C#N)c5)c4[C@]2(CCN3C)CC1=O` yielded a Ratio of 4.28. Work on `COC1=C[C@@H]2[C@@H]3Cc4ccc(OC)c(OCc5cn(Cc6ccc(F)cc6)nn5)c4[C@]2(CCN3C)CC1=O` yielded a Ratio of 1.98.

— ChEMBL document CHEMBL2069225, “Design, synthesis and molecular docking studies of sinomenine derivatives” (Bioorg Med Chem Lett, 2012)
